Laboratory results as given in US9957270B2, “Fused pyrimidine-based hydroxamate derivatives” (Agency for Science, Technology and Research, priority 2014, dated 2018).

Tests used:
[1] = biological target: HDAC (HeLa nuclear extracts); assay: HDAC enzyme assay, HeLa nuclear extracts; conditions: read-out: In Vitro Enzymatic IC50 HDAC (HeLa)
HCT 116 = assay: cells; conditions: Homo sapiens, HCT-116, 72 h, read-out: In Vitro Cellular IC50 HCT 116
MOLT-4 = assay: Anti-proliferative assay (cellular IC50), MOLT-4; conditions: Homo sapiens, MOLT-4, 72 h, read-out: In Vitro Cellular IC50 MOLT-4
[2] = Microsomal stability, mouse liver microsomes; conditions: mouse, microsomes, 0.5 h, 5 μM, pH 7.4
Description: (§1) GIBIO pooled human liver microsomes (HLM) (Cat # HMMCPL), mouse liver microsomes (MLM) (Cat # BCMCPL), and rat liver microsomes (RLM) (Cat # RTMCPL) were purchased from Life Technologies. […] Samples are incubated for 30, 45, or 60 min. Reaction is terminated with ice-cold acetonitrile 0.3% formic acid. Samples are subsequently centrifuged at 4° C. for 15 min at 20,000×g. The supernatant is analysed by LC-MS.
(§2) Compound in vitro metabolic stability was assayed using liver microsomes (LM) at 0.5 mg/mL of proteins, incubated for 30 min (mouse, MLM), 45 min (rat, RLM), 30 or 45 min (human, HLM). % of remaining parent compound was measured using LC-MS.

HDAC6 = biological target: T1, HDAC6 (Homo sapiens, UniProt Q9UBN7); assay: HDAC enzyme assay, recombinant HDAC6
T1 sequence (Q9UBN7 1-1215): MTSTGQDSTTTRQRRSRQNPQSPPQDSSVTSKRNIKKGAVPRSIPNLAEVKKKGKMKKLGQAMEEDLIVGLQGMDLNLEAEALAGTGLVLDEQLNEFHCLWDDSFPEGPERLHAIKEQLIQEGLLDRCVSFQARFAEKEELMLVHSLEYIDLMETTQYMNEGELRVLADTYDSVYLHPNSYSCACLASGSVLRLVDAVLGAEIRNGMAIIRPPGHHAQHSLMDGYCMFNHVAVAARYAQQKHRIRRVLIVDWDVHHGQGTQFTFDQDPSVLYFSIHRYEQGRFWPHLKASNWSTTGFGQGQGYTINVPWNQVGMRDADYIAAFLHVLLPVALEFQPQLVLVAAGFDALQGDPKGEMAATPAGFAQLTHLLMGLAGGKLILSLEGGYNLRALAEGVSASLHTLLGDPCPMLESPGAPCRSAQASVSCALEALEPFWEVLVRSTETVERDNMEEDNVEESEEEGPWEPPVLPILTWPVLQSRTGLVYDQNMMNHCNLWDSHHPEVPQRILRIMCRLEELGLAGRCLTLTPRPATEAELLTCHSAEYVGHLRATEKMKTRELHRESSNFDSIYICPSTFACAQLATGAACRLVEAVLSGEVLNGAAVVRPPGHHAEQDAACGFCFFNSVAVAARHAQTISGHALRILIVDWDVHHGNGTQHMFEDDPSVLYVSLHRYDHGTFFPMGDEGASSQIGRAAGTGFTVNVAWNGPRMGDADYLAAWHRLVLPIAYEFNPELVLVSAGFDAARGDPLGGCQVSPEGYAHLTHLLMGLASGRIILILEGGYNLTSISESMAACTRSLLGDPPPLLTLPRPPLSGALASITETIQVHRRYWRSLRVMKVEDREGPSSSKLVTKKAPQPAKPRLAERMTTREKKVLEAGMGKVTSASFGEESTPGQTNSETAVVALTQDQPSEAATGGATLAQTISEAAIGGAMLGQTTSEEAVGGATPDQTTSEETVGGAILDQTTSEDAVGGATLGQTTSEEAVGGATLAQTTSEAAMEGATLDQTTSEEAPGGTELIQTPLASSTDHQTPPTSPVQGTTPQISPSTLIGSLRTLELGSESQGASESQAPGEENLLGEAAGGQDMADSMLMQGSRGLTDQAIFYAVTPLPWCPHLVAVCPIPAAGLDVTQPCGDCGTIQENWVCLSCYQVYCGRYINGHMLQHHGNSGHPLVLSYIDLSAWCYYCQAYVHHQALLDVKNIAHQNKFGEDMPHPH

HDAC1 = HDAC1 (Homo sapiens, UniProt Q13547); assay: HDAC enzyme assay, recombinant HDAC1
MCF7 = assay: Anti-proliferative assay (cellular IC50), MCF7; conditions: Homo sapiens, MCF7, 72 h, read-out: In Vitro Cellular IC50 MCF7
MV-4-11 = assay: cells; conditions: Homo sapiens, MV4-11, 72 h, read-out: In Vitro Cellular IC50 MV-4-11
PI3Kα = biological target: T2, PI3Kα (Homo sapiens, UniProt P42336); assay: Kinase enzyme assay (ADP-Glo), PI3Kα; format: biochemical; conditions: read-out: In Vitro Enzymatic IC50 PI3Kα
T2 construct: purchased Invitrogen, or BPS Bioscience Inc., or SignalChem PV4788 / 40620 / P27-18H

[3] = Microsomal stability, rat liver microsomes; conditions: rat, microsomes, 0.75 h, 5 μM, pH 7.4
Description: as §1, §2

[4] = Microsomal stability, human liver microsomes; conditions: human, microsomes, 0.75 h, 5 μM, pH 7.4
Description: as §1, §2

COLO 205 = assay: cells; conditions: Homo sapiens, COLO 205, 72 h, read-out: In Vitro Cellular IC50 COLO 205
PC-3 = assay: Anti-proliferative assay (cellular IC50), PC-3; conditions: Homo sapiens, PC-3, 72 h, read-out: In Vitro Cellular IC50 PC-3
K-562 = assay: Anti-proliferative assay (cellular IC50), K-562; conditions: Homo sapiens, K562, 72 h, read-out: In Vitro Cellular IC50 K-562
PI3Kβ = biological target: T3, PI3Kβ (Homo sapiens, UniProt P42338); assay: Kinase enzyme assay (ADP-Glo), PI3Kβ; format: biochemical; conditions: read-out: In Vitro Enzymatic IC50 PI3Kβ
T3 construct: purchased SignalChem or BPS P28-10H / 40622

p110α(H1047R)/p85α = biological target: T4, p110α(H1047R)/p85α (Homo sapiens, UniProt P42336, H1047R); assay: Kinase enzyme assay (ADP-Glo), PI3Kα (H1047R); format: biochemical; conditions: read-out: In Vitro Enzymatic IC50 PI3Kα (H1047R)
T4 construct: purchased BPS 40641

p110α(E545K)/p85α = biological target: T5, p110α(E545K)/p85α (Homo sapiens, UniProt P42336, E545K); assay: Kinase enzyme assay (ADP-Glo), PI3Kα (E545K); format: biochemical; conditions: read-out: In Vitro Enzymatic IC50 PI3Kα (E545K)
T5 construct: purchased SignalChem P27-15H
T5 sequence (P42336 whole entry E545K): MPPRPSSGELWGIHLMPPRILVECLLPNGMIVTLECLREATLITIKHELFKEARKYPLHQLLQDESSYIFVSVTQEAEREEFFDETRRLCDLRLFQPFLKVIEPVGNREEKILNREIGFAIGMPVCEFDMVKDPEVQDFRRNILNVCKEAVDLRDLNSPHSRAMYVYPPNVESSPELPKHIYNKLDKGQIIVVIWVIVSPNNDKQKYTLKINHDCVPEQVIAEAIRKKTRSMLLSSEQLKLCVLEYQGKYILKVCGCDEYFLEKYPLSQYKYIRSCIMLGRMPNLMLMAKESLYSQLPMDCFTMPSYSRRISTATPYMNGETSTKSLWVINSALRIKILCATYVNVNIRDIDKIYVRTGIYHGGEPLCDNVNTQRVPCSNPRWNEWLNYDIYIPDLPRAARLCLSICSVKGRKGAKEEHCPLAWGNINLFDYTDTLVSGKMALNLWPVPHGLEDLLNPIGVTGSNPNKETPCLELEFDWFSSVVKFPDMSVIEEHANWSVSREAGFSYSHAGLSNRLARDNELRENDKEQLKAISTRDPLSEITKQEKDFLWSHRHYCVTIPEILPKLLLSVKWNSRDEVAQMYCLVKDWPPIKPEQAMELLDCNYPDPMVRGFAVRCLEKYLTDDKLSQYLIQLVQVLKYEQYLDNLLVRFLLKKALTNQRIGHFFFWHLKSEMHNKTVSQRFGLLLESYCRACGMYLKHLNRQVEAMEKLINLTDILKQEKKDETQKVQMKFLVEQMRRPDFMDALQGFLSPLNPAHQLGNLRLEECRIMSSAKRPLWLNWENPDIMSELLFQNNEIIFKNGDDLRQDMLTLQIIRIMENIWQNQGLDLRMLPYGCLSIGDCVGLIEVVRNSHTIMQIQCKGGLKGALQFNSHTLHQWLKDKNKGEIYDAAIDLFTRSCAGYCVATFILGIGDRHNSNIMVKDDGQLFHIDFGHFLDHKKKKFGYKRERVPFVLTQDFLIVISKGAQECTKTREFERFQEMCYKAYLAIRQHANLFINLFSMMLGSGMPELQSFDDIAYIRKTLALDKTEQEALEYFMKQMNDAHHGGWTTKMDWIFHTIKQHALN
T5 sequence (P27986 whole entry partner): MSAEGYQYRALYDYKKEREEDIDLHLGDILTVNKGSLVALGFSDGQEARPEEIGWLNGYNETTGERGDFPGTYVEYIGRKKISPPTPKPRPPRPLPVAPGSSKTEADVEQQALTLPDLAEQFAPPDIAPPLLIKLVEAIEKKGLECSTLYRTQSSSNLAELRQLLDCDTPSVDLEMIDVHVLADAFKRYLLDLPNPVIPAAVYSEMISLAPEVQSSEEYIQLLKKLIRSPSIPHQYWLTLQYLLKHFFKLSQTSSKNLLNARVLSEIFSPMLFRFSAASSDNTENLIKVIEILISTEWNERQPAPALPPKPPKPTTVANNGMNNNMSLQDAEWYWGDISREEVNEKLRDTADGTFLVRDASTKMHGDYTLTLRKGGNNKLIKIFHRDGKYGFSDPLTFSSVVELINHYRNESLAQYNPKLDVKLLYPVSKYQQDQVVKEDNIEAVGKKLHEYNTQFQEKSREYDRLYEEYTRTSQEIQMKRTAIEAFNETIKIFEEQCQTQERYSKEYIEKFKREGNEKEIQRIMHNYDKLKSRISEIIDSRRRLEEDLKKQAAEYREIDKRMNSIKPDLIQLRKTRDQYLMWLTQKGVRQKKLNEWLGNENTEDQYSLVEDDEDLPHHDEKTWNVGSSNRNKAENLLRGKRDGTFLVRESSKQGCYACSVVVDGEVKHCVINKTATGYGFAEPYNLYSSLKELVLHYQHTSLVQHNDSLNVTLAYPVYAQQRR

T2 sequence (P42336 whole entry): as the sequence (P42336 whole entry E545K) above, with K545E counted along it
T2 sequence (P27986 whole entry partner): as the sequence (P27986 whole entry partner) above
Chain of HDAC1 (Q13547 whole entry): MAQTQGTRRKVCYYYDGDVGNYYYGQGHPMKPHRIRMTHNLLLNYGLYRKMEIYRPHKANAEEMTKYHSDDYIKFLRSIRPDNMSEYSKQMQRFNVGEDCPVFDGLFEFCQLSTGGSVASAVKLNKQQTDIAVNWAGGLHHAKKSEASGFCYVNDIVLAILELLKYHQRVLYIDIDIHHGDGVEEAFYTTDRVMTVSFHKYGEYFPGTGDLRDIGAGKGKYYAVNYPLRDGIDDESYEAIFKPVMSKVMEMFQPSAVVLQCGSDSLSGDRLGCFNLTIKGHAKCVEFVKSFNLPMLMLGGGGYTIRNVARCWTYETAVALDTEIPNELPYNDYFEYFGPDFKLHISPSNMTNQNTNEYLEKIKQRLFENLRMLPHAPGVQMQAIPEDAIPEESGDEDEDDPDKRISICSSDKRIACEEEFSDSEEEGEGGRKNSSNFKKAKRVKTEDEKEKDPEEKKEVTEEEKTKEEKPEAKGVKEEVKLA
T4 sequence (P42336 whole entry H1047R): as the sequence (P42336 whole entry E545K) above, with K545E, H1047R counted along it
T4 sequence (P27986 whole entry partner): as the sequence (P27986 whole entry partner) above
T3 sequence (P42338 whole entry): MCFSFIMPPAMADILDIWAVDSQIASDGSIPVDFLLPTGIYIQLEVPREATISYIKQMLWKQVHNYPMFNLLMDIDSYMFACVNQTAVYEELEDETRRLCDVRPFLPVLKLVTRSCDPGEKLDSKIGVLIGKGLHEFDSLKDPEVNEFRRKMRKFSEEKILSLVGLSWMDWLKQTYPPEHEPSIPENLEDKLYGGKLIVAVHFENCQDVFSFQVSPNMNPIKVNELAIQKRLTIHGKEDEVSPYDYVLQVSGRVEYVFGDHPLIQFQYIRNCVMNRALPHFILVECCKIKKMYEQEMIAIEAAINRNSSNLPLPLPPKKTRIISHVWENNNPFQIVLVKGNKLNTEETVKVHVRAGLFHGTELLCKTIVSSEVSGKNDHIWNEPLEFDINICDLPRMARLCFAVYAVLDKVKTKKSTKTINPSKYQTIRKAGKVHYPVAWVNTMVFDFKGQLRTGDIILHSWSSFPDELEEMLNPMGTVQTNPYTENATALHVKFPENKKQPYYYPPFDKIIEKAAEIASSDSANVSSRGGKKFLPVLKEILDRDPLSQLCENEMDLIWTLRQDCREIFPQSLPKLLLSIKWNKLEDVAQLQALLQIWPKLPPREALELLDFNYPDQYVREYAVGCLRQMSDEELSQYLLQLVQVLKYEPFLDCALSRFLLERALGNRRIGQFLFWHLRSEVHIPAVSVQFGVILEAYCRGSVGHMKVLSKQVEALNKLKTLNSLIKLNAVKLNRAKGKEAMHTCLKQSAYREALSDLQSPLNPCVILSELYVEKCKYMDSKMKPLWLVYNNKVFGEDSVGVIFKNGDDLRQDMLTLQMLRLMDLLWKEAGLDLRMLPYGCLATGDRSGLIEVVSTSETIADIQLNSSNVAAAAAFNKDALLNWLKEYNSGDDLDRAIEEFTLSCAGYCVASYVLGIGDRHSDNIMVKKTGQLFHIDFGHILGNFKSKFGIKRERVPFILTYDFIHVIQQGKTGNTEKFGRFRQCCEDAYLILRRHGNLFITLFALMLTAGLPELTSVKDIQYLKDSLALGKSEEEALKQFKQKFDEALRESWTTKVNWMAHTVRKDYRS
T3 sequence (P27986 whole entry partner): as the sequence (P27986 whole entry partner) above

Row | IC50 [1] | IC50 (HCT 116) | IC50 (MOLT-4) | Microsomal Stability MLM, % of remaining parent compound [2] | IC50 (HDAC6) | IC50 (HDAC1) | IC50 (MCF7) | IC50 (MV-4-11) | IC50 (PI3Kα) | Microsomal Stability RLM, % of remaining parent compound [3] | Microsomal Stability HLM, % of remaining parent compound [4] | IC50 (COLO 205) | IC50 (PC-3) | IC50 (K-562) | IC50 (PI3Kβ) | IC50 (p110α(H1047R)/p85α) | IC50 (p110α(E545K)/p85α) | SMILES
1 | 100 to 1000 nM | 500 to 2000 nM | 2000 to 10000 nM | 89% | 100 to 1000 nM | 10 to 100 nM | 2000 to 10000 nM | 500 to 2000 nM | 10 to 100 nM | 88% | 88% | 2000 to 10000 nM | 2000 to 10000 nM | 2000 to 10000 nM | – | – | – | CC(C)n1c(NCCCCCC(=O)NO)nc2c(-c3cnc(N)nc3)nc(N3CCOCC3)nc21 [compound 6]
2 | 100 to 1000 nM | – | 500 to 2000 nM | 70% | – | 100 to 1000 nM | 500 to 2000 nM | – | 10 to 100 nM | 70% | 87% | 2000 to 10000 nM | 2000 to 10000 nM | 2000 to 10000 nM | – | – | – | CCn1c(CN(C)Cc2ccc(/C=C/C(=O)NO)cc2)nc2c(N3CCOCC3)nc(-c3cnc(N)nc3)nc21 [compound 89, (E)-3-(4-((((2-(2-aminopyrimidin-5-yl)-9-ethyl-6-morpholino-9H-purin-8-yl)methyl)(methyl)amino)methyl)phenyl)-N-hydroxyacrylamide]
3 | < 10 nM | – | – | – | < 10 nM | < 10 nM | – | – | 10 to 100 nM | – | – | – | – | – | 100 to 1000 nM | 10 to 100 nM | 10 to 100 nM | CC(C)n1cnc2c(-c3cnc(N)nc3)nc(NCCCCCC(=O)NO)nc21 [compound 38, 6-((6-(2-aminopyrimidin-5-yl)-9-isopropyl-9H-purin-2-yl)amino)-N-hydroxyhexanamide]
4 | 100 to 1000 nM | < 500 nM | < 500 nM | 75% | – | 10 to 100 nM | 500 to 2000 nM | < 500 nM | – | 9% | 97% | 500 to 2000 nM | 500 to 2000 nM | 500 to 2000 nM | – | – | – | CC(C)n1cnc2c(-c3cccc(OCCCC(=O)NO)c3)nc(N3CCCC3)nc21 [compound 29, N-hydroxy-4-(3-(9-isopropyl-2-(pyrrolidin-1-yl)-9H-purin-6-yl)phenoxy)butanamide]
5 | < 10 nM | – | – | – | < 10 nM | < 10 nM | – | – | 10 to 100 nM | – | – | – | – | – | 100 to 1000 nM | 10 to 100 nM | 10 to 100 nM | CC(C)n1cnc2c(N3CCOCC3)nc(-c3ccc(OCCCCCCC(=O)NO)cc3)nc21 [compound 81, N-hydroxy-7-(4-(9-isopropyl-6-morpholino-9H-purin-2-yl)phenoxy)heptanamide]
